For 21 compounds, T/C results are on record in PubChem BioAssay AID328 (DTP/NCI, 2004).

The test system of the assay is BDF1 mice, P388 leukemia ip, median survival T/C. As to the kind of experiment: NCI In Vivo Anticancer Drug Screen. Data for tumor model P388 Leukemia (intraperitoneal) in B6D2F1 (BDF1) mice. The note with it: endpoint: median survival time, higher = longer survival. The procedure, abridged: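 Reported as T/C, where T is the survival measurement in dosed animals and C the same measurement in vehicle controls.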

[1] abbreviates: dose: 50.0 mg/kg/injection, schedule: Q01DX009 (ip), vehicle: saline with Tween-80.
Where [2] appears, read: dose: 100.0 mg/kg/injection, schedule: Q04DX003 (ip), vehicle: saline with Tween-80.
Setting [3] is: dose: 200.0 mg/kg/injection, schedule: Q04DX003 (ip), vehicle: saline with Tween-80.
The mark [4] stands for this setting: dose: 400.0 mg/kg/injection, schedule: Q04DX003 (ip), vehicle: saline with Tween-80.
[5] abbreviates: dose: 3.12 mg/kg/injection, schedule: Q01DX009 (ip), vehicle: saline.
[6] abbreviates: dose: 100.0 mg/kg/injection, schedule: Q01DX009 (ip), vehicle: saline with Tween-80.
[7] abbreviates: dose: 200.0 mg/kg/injection, schedule: Q01DX009 (ip), vehicle: saline with Tween-80.
[8] abbreviates: dose: 100.0 mg/kg/injection, schedule: Q01DX009 (ip), vehicle: saline.
The mark [9] stands for this setting: dose: 100.0 mg/kg/injection, schedule: Q01DX001 (ip), vehicle: saline with Tween-80.
Setting [10] is: dose: 200.0 mg/kg/injection, schedule: Q01DX001 (ip), vehicle: saline with Tween-80.
The mark [11] stands for this setting: dose: 400.0 mg/kg/injection, schedule: Q01DX001 (ip), vehicle: saline with Tween-80.
The mark [12] stands for this setting: dose: 6.25 mg/kg/injection, schedule: Q01DX009 (ip), vehicle: Klucel (hydroxypropylcellulose) (HPC).
Where [13] appears, read: dose: 12.5 mg/kg/injection, schedule: Q01DX009 (ip), vehicle: Klucel (hydroxypropylcellulose) (HPC).
[14] abbreviates: dose: 50.0 mg/kg/injection, schedule: Q01DX009 (ip), vehicle: saline.

Several values for one entry are separate records, joined by “and”; a condition that tells them apart may be missing. Equal values may be shown once. Inconclusive results and toxic doses are left out.

For `CNc1c(F)c(C#N)c(F)c(F)c1C#N`, the T/C under setting [1] was 119 % of control.

`CC(=O)c1c(-c2ccccc2)noc1C`: the T/C reads like this: under setting [2], 98 % of control; under setting [3], 90 % of control; under setting [4], 100 % of control.

Take `NC(=O)NO.NC(=O)NO.[Cl][Ni][Cl]`: the T/C under setting [5] is 92 % of control.

Take `O=C(NC(=O)c1c(F)cccc1F)Nc1nc2c(Cl)cccc2s1`: the T/C is, setting by setting: under setting [1], 93 % of control; under setting [6], 93 % of control; under setting [7], 94 % of control.

For the compound `C=C1CC2(CCC(C(C)(C)C)CC2)OC1=O` (stereo unspecified), the T/C by setting is: (dose: 100.0 mg/kg/injection, schedule: Q04DX002 (ip), vehicle: saline with Tween-80) 105 % of control; (dose: 200.0 mg/kg/injection, schedule: Q04DX002 (ip), vehicle: saline with Tween-80) 108 % of control; (dose: 400.0 mg/kg/injection, schedule: Q04DX002 (ip), vehicle: saline with Tween-80) 97 % of control.

In the case of `N#CC1=C(N)CCC2(C1)c1ccccc1-c1ccccc12`, the T/C reads like this: under setting [1], 103 % of control; under setting [6], 88 % of control; under setting [7], 96 % of control.

With `COc1cc2c(cc1OC)C1c3cc(OC)c(OC)cc3CC(=O)N1CC2` (stereo unspecified), the T/C reads like this: (dose: 0.09 mg/kg/injection, schedule: Q01DX009 (ip), vehicle: saline) 110 % of control; (dose: 0.39 mg/kg/injection, schedule: Q01DX009 (ip), vehicle: saline) 88 % of control; (dose: 0.78 mg/kg/injection, schedule: Q01DX009 (ip), vehicle: saline) 98 % of control; (dose: 1.56 mg/kg/injection, schedule: Q01DX009 (ip), vehicle: saline) 99 % of control; under setting [5], 100 % of control; (dose: 12.5 mg/kg/injection, schedule: Q01DX009 (ip), vehicle: saline) 108 % of control. Moreover, the T/C is, setting by setting: (dose: 50.0 mg/kg/injection, schedule: Q04DX003 (ip), vehicle: saline) 102 % of control; under setting [8], 92 % of control; (dose: 100.0 mg/kg/injection, schedule: Q04DX003 (ip), vehicle: saline) 99 % of control; (dose: 200.0 mg/kg/injection, schedule: Q04DX003 (ip), vehicle: saline) 102 % of control; (dose: 400.0 mg/kg/injection, schedule: Q04DX003 (ip), vehicle: saline) 93 % of control.

In the case of `Clc1ccc2c(Cl)ncnc2c1`, the T/C is 104 % of control under setting [2] and 109 % of control under setting [3].

In the case of `OCCOc1cccc(OCCO)c1`, the T/C by setting is: under setting [2], 100 % of control; under setting [3], 100 % of control; under setting [4], 104 % of control.

On to `CCCCN(C(=O)C(F)(F)F)C(C)(C)C(SSSC(c1cccs1)C(C)(C)N(CCCC)C(=O)C(F)(F)F)c1cccs1` (stereo unspecified), for which the T/C under setting [2] is 109 % of control.

`COc1cc([N+](=O)[O-])cc(C=O)c1OC(=O)c1ccccc1`: the T/C is 109 % of control under setting [1] and 123 % of control under setting [6].

In the case of `CC(=O)C1=CC2(OC3CCC(O)(C(=O)CO)C(C)O3)C(=O)c3c(cc4cccc(O)c4c3O)CC2C(O)C1O` (stereo unspecified), the T/C reads like this: (dose: 19.0 mg/kg/injection, schedule: Q01DX010 (ip), vehicle: carboxymethylcellulose (CMC)) 100 % of control; (dose: 38.0 mg/kg/injection, schedule: Q01DX010 (ip), vehicle: carboxymethylcellulose (CMC)) 100 % of control; (dose: 75.0 mg/kg/injection, schedule: Q01DX010 (ip), vehicle: carboxymethylcellulose (CMC)) 104 % of control; (dose: 150.0 mg/kg/injection, schedule: Q01DX010 (ip), vehicle: carboxymethylcellulose (CMC)) 104 % of control.

`O=c1[nH]ccn2cnnc12`: the T/C under setting [9] was 95 % of control, the T/C under setting [10] was 95 % of control and the T/C under setting [11] was 104 % of control.

Take `Nc1ccc(S(=O)(=O)c2cc(O)c3ccccc3c2O)cc1`: the T/C under setting [12] was 118 % of control; the T/C under setting [13] is 104 % of control; the T/C (dose: 25.0 mg/kg/injection, schedule: Q01DX009 (ip), vehicle: Klucel (hydroxypropylcellulose) (HPC)) is 122 % of control.

In the case of `CN(C(=N)N)c1ccc(C(=O)Oc2ccc([N+](=O)[O-])cc2)cc1`, the T/C is 100 % of control (dose: 12.5 mg/kg/injection, schedule: Q01DX009 (ip), vehicle: water); 104 % of control (dose: 18.75 mg/kg/injection, schedule: Q04DX003 (ip), vehicle: water); 100 % of control (dose: 25.0 mg/kg/injection, schedule: Q01DX009 (ip), vehicle: water); 109 % of control (dose: 37.5 mg/kg/injection, schedule: Q04DX003 (ip), vehicle: water); 108 % of control (dose: 50.0 mg/kg/injection, schedule: Q01DX009 (ip), vehicle: water); 104 % of control and 117 % of control (dose: 75.0 mg/kg/injection, schedule: Q04DX003 (ip), vehicle: water). Also, the T/C (dose: 100.0 mg/kg/injection, schedule: Q01DX009 (ip), vehicle: water) is 104 % of control; the T/C (dose: 100.0 mg/kg/injection, schedule: Q04DX003 (ip), vehicle: water) is 99 % of control; the T/C (dose: 150.0 mg/kg/injection, schedule: Q04DX003 (ip), vehicle: water) is 117 % of control; the T/C (dose: 200.0 mg/kg/injection, schedule: Q04DX003 (ip), vehicle: water) is 89 % of control; the T/C (dose: 400.0 mg/kg/injection, schedule: Q04DX003 (ip), vehicle: water) is 89 % of control.

As for `Nc1nc(=O)n(CC(=O)c2ccco2)cc1F`, the T/C reads like this: under setting [14], 109 % of control; under setting [8], 95 % of control and 100 % of control; (dose: 200.0 mg/kg/injection, schedule: Q01DX009 (ip), vehicle: saline) 118 % of control.

Regarding `C[N+](C)(C)Cc1ccccc1`, the T/C runs as follows: (dose: 25.0 mg/kg/injection, schedule: Q04DX003 (ip), vehicle: saline with Tween-80) 95 % of control; (dose: 50.0 mg/kg/injection, schedule: Q04DX003 (ip), vehicle: saline with Tween-80) 112 % of control.

On to `COC(=O)Nc1cccc(-c2nc3ccc(NC(=O)OC)cc3c(=O)n2-c2ccccc2)c1`, for which the T/C under setting [12] is 108 % of control; the T/C under setting [13] is 117 % of control; the T/C (dose: 25.0 mg/kg/injection, schedule: Q01DX009 (ip), vehicle: saline) is 150 % of control; the T/C (dose: 25.0 mg/kg/injection, schedule: Q01DX009 (oral), vehicle: Klucel (hydroxypropylcellulose) (HPC)) is 107 % of control; the T/C (dose: 50.0 mg/kg/injection, schedule: Q01DX009 (ip), vehicle: Klucel (hydroxypropylcellulose) (HPC)) was 213 % of control; the T/C under setting [14] was 155 % of control. The T/C reads like this: (dose: 50.0 mg/kg/injection, schedule: Q01DX009 (oral), vehicle: Klucel (hydroxypropylcellulose) (HPC)) 109 % of control; under setting [8], 186 % of control; (dose: 100.0 mg/kg/injection, schedule: Q01DX009 (oral), vehicle: Klucel (hydroxypropylcellulose) (HPC)) 109 % of control; (dose: 800.0 mg/kg/injection, schedule: Q01DX009 (oral), vehicle: Klucel (hydroxypropylcellulose) (HPC)) 155 % of control.

For `CC(C)(C)c1ccc(OS(=O)(=O)c2ccccc2[N+](=O)[O-])cc1`, the T/C under setting [9] was 104 % of control, the T/C under setting [10] was 100 % of control and the T/C under setting [11] is 113 % of control.

With `Cc1cc(N(CCCl)CCCl)ccc1C=Nc1cccc(Cl)c1`, the T/C under setting [1] was 103 % of control; the T/C under setting [6] was 119 % of control; the T/C under setting [2] is 118 % of control; the T/C under setting [7] is 96 % of control; the T/C under setting [3] is 118 % of control.

With `COc1ccccc1Oc1ccc(N=Cc2ccc(C)cc2)cc1`, the T/C is, setting by setting: (dose: 12.0 mg/kg/injection, schedule: Q01DX001 (ip), vehicle: Klucel (hydroxypropylcellulose) (HPC)) 100 % of control; (dose: 25.0 mg/kg/injection, schedule: Q01DX001 (ip), vehicle: Klucel (hydroxypropylcellulose) (HPC)) 104 % of control; (dose: 50.0 mg/kg/injection, schedule: Q01DX001 (ip), vehicle: Klucel (hydroxypropylcellulose) (HPC)) 95 % of control; (dose: 100.0 mg/kg/injection, schedule: Q01DX001 (ip), vehicle: Klucel (hydroxypropylcellulose) (HPC)) 100 % of control.
